# Data reported in paper PMC11139883, “Functional and structural dissection of glycosyltransferases underlying the glycodiversity of wolfberry-derived bioactive ingredients lycibarbarspermidines” (Nature Communications, 2024).
# B1: LbUGT1 (Lycium barbarum) (protein)
# chain: LTTKAELVFIPSPGAGHLISAIEIAKLILNRDERLCISVLIMKLPMDFGVQSYVASLSSSPRLQFVDITLDEKTVAGLLKNKESFFTDFIQGHKPKVKDFIHNTSFSKSGSGFSRLAGFVLDMFCTSMIDVASEFSVPSYIFLTSNAAFLALCYHFESLKKEHHIDTSKYKDSDEELTIPGFKNPYPGKFLPRLTTDQTTATTLFFDSVTRFKETKGIMVNTFAELEPFALQSLLVPKIYPVGPVVNFKEGGHGRNSESETESIIKWLDDQPESSVVFLCFGSMGSFDAEQIEEIAVALECSGHRFLWSLRRPPPKGKMELPSNYEDFQEVLPEGFIERTNGVGKVIGWAPQVAVLSHPAVGGFVSHCGWNSVLESLCFGVPIGAWPQYAEQQMNAFELVKQLGLAVEIRMDYFKDFEGKHGPVEIVTAKEIASGIRQLMADGEENEIRKRAKEMKEKSSAAMKEGGSSYASLGLLIEDVISNIS
# notes: full length (485 residues by printed domain borders); GST fusion (pGEX-2TK) from E. coli Rosetta (DE3) for assays; crystal protein with MBP-His tag removed by TEV
# Legend:
# Test in all cases: LC-MS product assay, Michaelis-Menten fit
# Format in all cases: biochemical, Lycium barbarum
# Details in all cases: 2.5 mM UDP-Glc, 1 mM MgCl2, 10 mM HEPES pH 7.0, 30 °C
# LbUGT3 = system: T1, LbUGT3
# T1 construct: full length (482 residues by printed domain borders); GST fusion (pGEX-2TK) from E. coli Rosetta (DE3) for assays; crystal protein with GST-His tag removed by TEV
# Description: LC-MS product assay, Michaelis-Menten fit on LbUGT3
# LbUGT4 = system: T2, LbUGT4
# T2 construct: full length; GST fusion (pGEX-2TK) from E. coli Rosetta (DE3)
# Description: LC-MS product assay, Michaelis-Menten fit on LbUGT4
# LbUGT2 = system: T3, LbUGT2
# T3 construct: full length; GST fusion (pGEX-2TK) from E. coli Rosetta (DE3)
# Description: LC-MS product assay, Michaelis-Menten fit on LbUGT2
# [1] = substrate: O=C(/C=C/c1ccc(O)c(O)c1)NCCCNCCCCNC(=O)CCc1ccc(O)c(O)c1
# Description: LC-MS product assay, Michaelis-Menten fit on LbUGT1
Molecule,Km (LbUGT3) [µM],Km (LbUGT4) [µM],Km (LbUGT2) [µM],Km [1] [µM],kcat [1] [s⁻¹],kcat/Km [1] [M⁻¹ s⁻¹]
"O=C(/C=C/c1ccc(O)c(O)c1)NCCCNCCCCNC(=O)CCc1ccc(O)c(O)c1 [compound 1, N^1-caffeoyl-N^10-dihydrocaffeoylspermidine]",325,901,762,–,–,–
B1,–,–,–,259.4,0.0057,22.1
